Assay results taken from patent publication US11261425B2, “Method for inducing differentiation of pluripotent stem cells into neural precursor cells” (Kyoto University, priority 2009, dated 2022).

Key:
Type in all cases: cell-based, Human
KhES-5 cells = test: Optimal concentration of LDN-193189 with SB431542 (SDIA method), KhES-5; settings: day 14, with SB431542, PA6 cells
Method: Differentiation was induced by co-culturing an ES cell line (Kh-ES5) with PA6 cells according to the SDIA method, then culturing the cells in a medium supplemented with 5-500 nM LDN-193189 and SB431542.
On one day before the initiation of differentiation induction, CTK dissociation solution (0.25% Trypsin, 1 mg/ml Collagenase and KSR 20%, and 1 mM CaCl2) was added to ES cells (KhES-1, KhES-4, and KhES-5), colonies were dissociated. ES cells detached from the dish were subjected to removal of MEF on gelatin coating, suspended in a differentiation medium (DMEM/Ham's F12 containing 5% knockout serum replacement (KSR), 2 mM L-glutamine, non-essential amino acids, and 1 μM 2-mercaptoethanol (2-ME)) for 1 hour, and then separated by pipetting so as to result in small aggregates (10-20 cells/clump). The obtained small aggregates were seeded on PA6 at a concentration ranging from 2500 to 5000 cells/cm^2. On day 4 of culture, the medium was exchanged with a differentiation medium supplemented with 10 μM SB431542 and 5-1,000 nM LDN-193189. Three days later, the medium was exchanged with a differentiation medium without SB431542 and LDN-193189. Thereafter, medium exchanges with such a differentiation medium without SB431542 and LDN-193189 were performed at 2- to 3-day intervals. […]

[1] = test system: KhES-1 cell line and KhES-4 cell line; test: Optimal concentration of LDN-193189 with SB431542 (SDIA method), KhES-1 and KhES-4; settings: day 14, with SB431542, PA6 cells
Method: On one day before the initiation of differentiation induction, CTK dissociation solution (0.25% Trypsin, 1 mg/ml Collagenase and KSR 20%, and 1 mM CaCl2) was added to ES cells (KhES-1, KhES-4, and KhES-5), colonies were dissociated. ES cells detached from the dish were subjected to removal of MEF on gelatin coating, suspended in a differentiation medium (DMEM/Ham's F12 containing 5% knockout serum replacement (KSR), 2 mM L-glutamine, non-essential amino acids, and 1 μM 2-mercaptoethanol (2-ME)) for 1 hour, and then separated by pipetting so as to result in small aggregates (10-20 cells/clump). The obtained small aggregates were seeded on PA6 at a concentration ranging from 2500 to 5000 cells/cm^2. On day 4 of culture, the medium was exchanged with a differentiation medium supplemented with 10 μM SB431542 and 5-1,000 nM LDN-193189. Three days later, the medium was exchanged with a differentiation medium without SB431542 and LDN-193189. Thereafter, medium exchanges with such a differentiation medium without SB431542 and LDN-193189 were performed at 2- to 3-day intervals.
Human ES cells (KhES-1, KhES-4, and KhES-5) were subjected to differentiation induction performed by a stromal cell-derived inducing activity method (SDIA method) using LDN-193189 at a concentration ranging from 5 nM to 1000 nM, in order to determine an optimal concentration of LDN-193189.

iPS cells (G4) = test: Differentiation of iPS cells into neural precursor cells on PA6 feeder cells (SDIA method), immunostaining; settings: day 14, PA6 feeder cells; for Nestin and Oct3/4 immunostaining of colonies: 2 μM Dorsomorphin and/or 10 μM SB431542
Method: Human ES cells (KhES-1, KhES-2, and KhES-3) from the Institute for Frontier Medical Sciences, Kyoto University were provided, and they were then cultured by the known method (Suemori H, et al. Biochem Biophys Res Commun. 345: 926-32, 2006). Human iPS cells (G1, G4, B6, and B7) were provided by Dr. Yamanaka of Kyoto University and then cultured by the known method (Takahashi K, et al. Cell. 131: 861-72, 2007 and Nakagawa M, et al. Nat Biotechnol. 26: 101-6, 2008). PA6 cells (RIKEN BRC Cell Bank) were seeded on a gelatin-coated dish and then cultured using MEM alpha containing 10% FBS. Upon induction of differentiation, cells were cultured for at least one day, confirmed to be confluent, and then used as feeder cells. Human iPS cells (404C2) was established by introducing reprogramming factors (OCT3/4, SOX2, KLF4, L-MYC, LIN28, and shRNA for p53) into human fibroblast using a vector containg EBNA-1 and oriP (U.S. 61/232,402 and U.S. 61/307,306), then cultured by same method of other human iPS cells.
ES cells or iPS cells were cultured using STO cells as feeder cells. One day before the initiation of differentiation induction, 10 μM ROCK inhibitor (Y27632) was added into a medium. CTK dissociation solution (0.25% Trypsin, 1 mg/ml Collagenase and KSR 20%, and 1 mM CaCl2) was added at 500 μl/10 cm dish, followed by 3 to 5 minutes of incubation at 37° C. The dish was gently tapped to remove feeder cells. After washing once with PBS, the CTK dissociation solution was added again, followed by 10-15 minutes of incubation at 37° C. ES cells or iPS cells detached from the dish were suspended in 5 ml of differentiation medium (DMEM/Ham's F12 containing 5% knockout serum replacement (KSR), 2 mM L-glutamine, non-essential amino acids, and 1 μM 2-mercaptoethanol (2-ME)). After centrifugation, supernatants were removed. Again, the cells were suspended in 1 ml of the differentiation medium and then separated from each other by pipetting, so as to result in small aggregates (10-20 cells/clump).
The obtained small aggregates were seeded on dishes having PA6 as feeder cells at concentrations ranging from 2500 to 5000 cells/cm^2. As a medium, a differentiation medium containing 2 μM Dorsomorphin (Sigma) and/or 10 μM SB431542 (Sigma) and/or 300 ng/ml Noggin (HZ-1026: HumanZyme) or 2 μl/well DMSO was used. 10 μM Y27632 was added only in the initial culture. Medium exchange was not performed until day 7, and it was then performed once every 3 to 4 days.
On day 14 after differentiation induction, cells were fixed with 4% PFA for 30 minutes at 4° C. and then immunostained in PBS with each antibody listed in Table 1.

[2] = test system: KhES-1, KhES-2, KhES-3, G1, G4, B6, and B7; test: SDIA method, colony counts per well in 7 ES/iPS cell lines; settings: day 14, 7 cell lines; for Number of colonies per well compared with control group or Noggin group: n=28
Method: When at least one positive cell could be confirmed within a colony, such colony was counted as a positive colony. […] Biochem Biophys Res Commun. 345: 926-32, 2006). Human iPS cells (G1, G4, B6, and B7) were provided by Dr. Yamanaka of Kyoto University and then cultured by the known method (Takahashi K, et al. Cell. 131: 861-72, 2007 and Nakagawa M, et al. Nat Biotechnol. 26: 101-6, 2008). PA6 cells (RIKEN BRC Cell Bank) were seeded on a gelatin-coated dish and then cultured using MEM alpha containing 10% FBS. Upon induction of differentiation, cells were cultured for at least one day, confirmed to be confluent, and then used as feeder cells. […] ES cells or iPS cells were cultured using STO cells as feeder cells. One day before the initiation of differentiation induction, 10 μM ROCK inhibitor (Y27632) was added into a medium. […] The dish was gently tapped to remove feeder cells. After washing once with PBS, the CTK dissociation solution was added again, followed by 10-15 minutes of incubation at 37° C. ES cells or iPS cells detached from the dish were suspended in 5 ml of differentiation medium (DMEM/Ham's F12 containing 5% knockout serum replacement (KSR), 2 mM L-glutamine, non-essential amino acids, and 1 μM 2-mercaptoethanol (2-ME)). After centrifugation, supernatants were removed. Again, the cells were suspended in 1 ml of the differentiation medium and then separated from each other by pipetting, so as to result in small aggregates (10-20 cells/clump). The obtained small aggregates were seeded on dishes having PA6 as feeder cells at concentrations ranging from 2500 to 5000 cells/cm^2. As a medium, a differentiation medium containing 2 μM Dorsomorphin (Sigma) and/or 10 μM SB431542 (Sigma) and/or 300 ng/ml Noggin (HZ-1026: HumanZyme) or 2 μl/well DMSO was used. 10 μM Y27632 was added only in the initial culture. Medium exchange was not performed until day 7, and it was then performed once every 3 to 4 days. On day 14 after differentiation induction, cells were fixed with 4% PFA for 30 minutes at 4° C. and then immunostained in PBS with each antibody listed in Table 1. […]

| SMILES | Concentration of LDN-193189 at which differentiation into neural precursor cells was induced relatively successfully (Nestin staining) (KhES-5 cells) | Increase of effect at LDN-193189 concentration higher than 50 nM (KhES-5 cells) | Concentration of LDN-193189 at which cells were stained to the highest degree with Pax6 [1] | Immunostaining for undifferentiation markers Nanog or SSEA3 and neural markers Pax6 or PSA-NCAM (iPS cells (G4)) | Nestin and Oct3/4 immunostaining of colonies (iPS cells (G4)) | Elimination of undifferentiated cells (Nestin-positive vs Oct3/4-positive colonies) [2] | Number of colonies per well compared with control group or Noggin group [2] |
| --- | --- | --- | --- | --- | --- | --- | --- |
| c1ccc2c(-c3cnn4cc(-c5ccc(N6CCNCC6)cc5)cnc34)ccnc2c1 [LDN-193189, 4-(6-(4-(piperazin-1-yl)phenyl)pyrazolo[1,5-a]pyrimidin-3-yl)quinoline] | ≥ 50 nM | not observed that the effect was increased | 20 nM | – | – | – | – |
| NC(=O)c1ccc(-c2nc(-c3ccc4c(c3)OCO4)c(-c3ccccn3)[nH]2)cc1 [SB431542, 4-[4-(1,3-benzodioxol-5-yl)-5-(2-pyridinyl)-1H-imidazol-2-yl]benzamide] | – | – | – | neural precursor cells appeared in aggregated cell populations | aggregated cell populations were positive for Nestin | effective in elimination of undifferentiated cells | significantly higher |
| c1cc(-c2cnn3cc(-c4ccc(OCCN5CCCCC5)cc4)cnc23)ccn1 [Dorsomorphin, 6-[4-(2-piperidin-1-yl-ethoxy)phenyl]-3-pyridin-4-yl-pyrazolo[1,5-a]pyrimidine] | – | – | – | undifferentiated cells and neural precursor cells coexisted | colonies positive for both Nestin and Oct3/4 were confirmed | – | significantly higher |
